# Measurements from patent publication US20100168250A1, “USE OF CYCLOHEXANEHEXOL DERIVATIVES IN THE TREATMENT OF OCULAR DISEASE” (priority 2007, published 2010).
# System: ARPE-19 cells
# Assay: Effect of AZD103 on Aβ1-42-induced VEGF secretion in ARPE-19 cells (VEGF ELISA)
# Format: cell-based, human
# Text: The potential of AZD-103 to neutralize the effects of Aβ on VEGF expression by RPE cells was investigated using the following materials and methods.
# Materials: Human VEGF Duoset, 2nd Generation was obtained from R & D Systems [# DY293B]. 3,3′,5,5′-Tetramethylbenzidine Liquid Substrate (TMB) was obtained from Sigma [# S8865]. The stop solution for TMB was also obtained from Sigma [# S5814]. Tween-20 was obtained from Fisher [# BP 337-500]; Probumin was obtained from Millipore [#82-045-1]; and, 10× Phosphate Buffered Saline (PBS) was obtained from Roche [#11666789001]. […] The Media was then assessed for levels of VEGF by ELISA (R&D Systems, Minneapolis, Minn.) VEGF ELISA: Conditioned media collected from cell cultures grown in the presence or absence of Aβ1-42 and AZD103 were tested for vascular endothelial growth factor (VEGF) expression using a human VEGF duoset ELISA development kit as described by the manufacturer (R &D systems). […] The reaction was stopped and the colour development was read spectrophotometrically at a wavelength of 450 nm.
smiles,measurement,setting,value
O[C@H]1[C@H](O)[C@@H](O)[C@H](O)[C@@H](O)[C@@H]1O [AZD103],amount of secreted VEGF,"ARPE-19 cells (1.5×10^4), Aβ1-42 oligomers pre-incubated 2 hours at 37° C. with AZD103 at weight ratios 1:0.5, 1:1, 1:2, 24 Hr treatment, serum-free medium, ELISA",effective towards reducing the amount of secreted VEGF
same,"VEGF expression by RPE cells in presence of Aβ, compared to basal levels (absence of Aβ)","ARPE-19 cells, expressed as comparison to Normal ARPE-19 cells that received no treatment",returned to basal levels
